ChEMBL document CHEMBL1201862, “PubChem BioAssay data set” (2004)
Active and inactive are the calls of the source.

Assays:
[1] = target: Polyadenylate-binding protein 1 (Homo sapiens, UniProt P11940); assay: blockers of PABP interaction with poly(A) – biochemical, fluorescence polarization, […] (AID 2014)
[2] = target: Eukaryotic translation initiation factor 4H (Homo sapiens, UniProt Q15056); assay: eIF4H binding inhibition – biochemical, uHTS, fluorescence polarization, translation initiation inhibitor project, primary screen (AID 2012)
Prothrombin = Prothrombin (Bos taurus, UniProt P00735); assay: thrombin protease inhibitors – biochemical, fluorescence polarization, uHTS hits, dose response (AID 602369); format: functional
[3] = target: 72 kDa type IV collagenase (Homo sapiens, UniProt P08253); assay: Dose Response validation of uHTS RPN11 inhibitor hits using a MMP-2 Fluorescence assay.; format: functional
cells = settings: A549
[4] = target: T1, Small ubiquitin-related modifier 1 (Homo sapiens, UniProt P63165); assay: SUMO1 protein-protein binding blockers, potency – biochemical, FRET, dose response (AID 624383); format: functional; settings: read-out: IC50_Mean
T1 sequence (P63165 whole entry): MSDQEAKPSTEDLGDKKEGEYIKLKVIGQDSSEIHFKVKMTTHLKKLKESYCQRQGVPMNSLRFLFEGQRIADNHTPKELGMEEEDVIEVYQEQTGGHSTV

[5] = target: T1, Small ubiquitin-related modifier 1; assay: SUMO1 protein interaction blockers, potency – biochemical, fluorescence polarization, uHTS hits, dose response (AID 624382); format: functional; settings: read-out: IC50_Mean
[6] = viability loss in HepG2 liver cells – cell-based, ATP luminescence, cherry-pick, set 6, cytotoxicity control, dose response (AID 1053125); format: functional
[7] = target: cAMP-dependent protein kinase catalytic subunit alpha (Homo sapiens, UniProt P17612); assay: inhibition of human PKA kinase activity – biochemical, Caliper mobility shift, dry powder samples, dose response (AID 504583)
Caspase-6 = target: T2, Caspase-6 (Homo sapiens, UniProt P55212); assay: inhibition of CASP6 peptide cleavage – biochemical, VEID-R110 fluorescence, cherry-pick, dose response (AID 720632)
T2 sequence (P55212 whole entry): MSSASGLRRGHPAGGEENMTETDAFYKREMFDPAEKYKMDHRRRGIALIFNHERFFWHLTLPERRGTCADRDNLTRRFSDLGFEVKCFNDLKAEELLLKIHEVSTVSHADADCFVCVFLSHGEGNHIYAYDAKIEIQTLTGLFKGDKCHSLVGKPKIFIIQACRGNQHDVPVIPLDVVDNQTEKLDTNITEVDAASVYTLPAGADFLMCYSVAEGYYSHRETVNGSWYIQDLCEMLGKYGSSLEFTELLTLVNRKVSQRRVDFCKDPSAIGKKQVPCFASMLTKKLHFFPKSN

[8] = target: 26S proteasome non-ATPase regulatory subunit 14 (Homo sapiens, UniProt O00487); assay: inhibition of proteasome subunit RPN11 – biochemical, fluorescence polarization, uHTS hits, confirmation (AID 602368); format: functional
Bcl-2-like protein 10 = Bcl-2-like protein 10 (Homo sapiens, UniProt Q9HD36); assay: Bcl-B/TR3 peptide binding disruption – biochemical, fluorescence polarization, FITC-TR3 peptide, selectivity assay for Bfl-1 inhibitor project, primary screen (AID 748);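 note: fluorescence polarization from a fluorescein-labelled TR3 peptide binding purified Bcl-B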
Sequence of Bcl-2-like protein 10 (Q9HD36 whole entry): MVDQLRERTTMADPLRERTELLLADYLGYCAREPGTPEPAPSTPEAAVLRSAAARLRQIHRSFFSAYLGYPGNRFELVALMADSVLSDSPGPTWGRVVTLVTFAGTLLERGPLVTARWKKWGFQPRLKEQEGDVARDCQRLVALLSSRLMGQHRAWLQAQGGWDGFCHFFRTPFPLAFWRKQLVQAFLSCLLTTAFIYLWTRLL

Estrogen receptor = target: T3, Estrogen receptor (Homo sapiens, UniProt P03372);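 note: potency for inhibiting coactivator peptide recruitment to the receptor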
T3 sequence (P03372 whole entry): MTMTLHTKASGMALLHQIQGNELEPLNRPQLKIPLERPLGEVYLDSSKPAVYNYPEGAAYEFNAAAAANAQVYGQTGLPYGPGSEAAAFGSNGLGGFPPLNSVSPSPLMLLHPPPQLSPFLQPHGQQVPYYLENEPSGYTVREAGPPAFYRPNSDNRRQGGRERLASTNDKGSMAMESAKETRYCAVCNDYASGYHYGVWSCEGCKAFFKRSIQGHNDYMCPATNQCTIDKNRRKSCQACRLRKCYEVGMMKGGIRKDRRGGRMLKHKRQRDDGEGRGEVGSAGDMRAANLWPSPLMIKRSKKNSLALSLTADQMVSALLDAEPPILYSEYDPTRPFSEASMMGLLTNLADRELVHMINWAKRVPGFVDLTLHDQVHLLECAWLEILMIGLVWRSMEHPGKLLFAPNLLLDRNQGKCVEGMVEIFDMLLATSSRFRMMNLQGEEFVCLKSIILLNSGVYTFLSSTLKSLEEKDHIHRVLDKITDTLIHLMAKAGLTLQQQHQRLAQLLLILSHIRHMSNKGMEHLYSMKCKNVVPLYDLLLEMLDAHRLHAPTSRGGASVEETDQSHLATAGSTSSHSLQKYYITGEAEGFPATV

SUMO E1/E2 = SUMO E1/E2 (Homo sapiens, UniProt P63279+Q9UBE0+Q9UBT2); assay: SAR analysis of SUMOylation using HTRF in an in-Vitro dose response assay. [Related pubchem assays (depositor defined):AID2006, AID2011, AID2018, AID2069, AID2658]; format: functional
[9] = target: T4, Voltage-gated N-type calcium channel alpha-1B subunit/Amyloid beta A4 precursor protein-binding family A member 1 (Homo sapiens, UniProt Q00975+Q02410); assay: disruptors of Mint-PDZ/N-type channel peptide interaction – biochemical, HTRF, set 2, SAR follow-up (AID 434980); format: functional
T4 sequence (Q00975 whole entry): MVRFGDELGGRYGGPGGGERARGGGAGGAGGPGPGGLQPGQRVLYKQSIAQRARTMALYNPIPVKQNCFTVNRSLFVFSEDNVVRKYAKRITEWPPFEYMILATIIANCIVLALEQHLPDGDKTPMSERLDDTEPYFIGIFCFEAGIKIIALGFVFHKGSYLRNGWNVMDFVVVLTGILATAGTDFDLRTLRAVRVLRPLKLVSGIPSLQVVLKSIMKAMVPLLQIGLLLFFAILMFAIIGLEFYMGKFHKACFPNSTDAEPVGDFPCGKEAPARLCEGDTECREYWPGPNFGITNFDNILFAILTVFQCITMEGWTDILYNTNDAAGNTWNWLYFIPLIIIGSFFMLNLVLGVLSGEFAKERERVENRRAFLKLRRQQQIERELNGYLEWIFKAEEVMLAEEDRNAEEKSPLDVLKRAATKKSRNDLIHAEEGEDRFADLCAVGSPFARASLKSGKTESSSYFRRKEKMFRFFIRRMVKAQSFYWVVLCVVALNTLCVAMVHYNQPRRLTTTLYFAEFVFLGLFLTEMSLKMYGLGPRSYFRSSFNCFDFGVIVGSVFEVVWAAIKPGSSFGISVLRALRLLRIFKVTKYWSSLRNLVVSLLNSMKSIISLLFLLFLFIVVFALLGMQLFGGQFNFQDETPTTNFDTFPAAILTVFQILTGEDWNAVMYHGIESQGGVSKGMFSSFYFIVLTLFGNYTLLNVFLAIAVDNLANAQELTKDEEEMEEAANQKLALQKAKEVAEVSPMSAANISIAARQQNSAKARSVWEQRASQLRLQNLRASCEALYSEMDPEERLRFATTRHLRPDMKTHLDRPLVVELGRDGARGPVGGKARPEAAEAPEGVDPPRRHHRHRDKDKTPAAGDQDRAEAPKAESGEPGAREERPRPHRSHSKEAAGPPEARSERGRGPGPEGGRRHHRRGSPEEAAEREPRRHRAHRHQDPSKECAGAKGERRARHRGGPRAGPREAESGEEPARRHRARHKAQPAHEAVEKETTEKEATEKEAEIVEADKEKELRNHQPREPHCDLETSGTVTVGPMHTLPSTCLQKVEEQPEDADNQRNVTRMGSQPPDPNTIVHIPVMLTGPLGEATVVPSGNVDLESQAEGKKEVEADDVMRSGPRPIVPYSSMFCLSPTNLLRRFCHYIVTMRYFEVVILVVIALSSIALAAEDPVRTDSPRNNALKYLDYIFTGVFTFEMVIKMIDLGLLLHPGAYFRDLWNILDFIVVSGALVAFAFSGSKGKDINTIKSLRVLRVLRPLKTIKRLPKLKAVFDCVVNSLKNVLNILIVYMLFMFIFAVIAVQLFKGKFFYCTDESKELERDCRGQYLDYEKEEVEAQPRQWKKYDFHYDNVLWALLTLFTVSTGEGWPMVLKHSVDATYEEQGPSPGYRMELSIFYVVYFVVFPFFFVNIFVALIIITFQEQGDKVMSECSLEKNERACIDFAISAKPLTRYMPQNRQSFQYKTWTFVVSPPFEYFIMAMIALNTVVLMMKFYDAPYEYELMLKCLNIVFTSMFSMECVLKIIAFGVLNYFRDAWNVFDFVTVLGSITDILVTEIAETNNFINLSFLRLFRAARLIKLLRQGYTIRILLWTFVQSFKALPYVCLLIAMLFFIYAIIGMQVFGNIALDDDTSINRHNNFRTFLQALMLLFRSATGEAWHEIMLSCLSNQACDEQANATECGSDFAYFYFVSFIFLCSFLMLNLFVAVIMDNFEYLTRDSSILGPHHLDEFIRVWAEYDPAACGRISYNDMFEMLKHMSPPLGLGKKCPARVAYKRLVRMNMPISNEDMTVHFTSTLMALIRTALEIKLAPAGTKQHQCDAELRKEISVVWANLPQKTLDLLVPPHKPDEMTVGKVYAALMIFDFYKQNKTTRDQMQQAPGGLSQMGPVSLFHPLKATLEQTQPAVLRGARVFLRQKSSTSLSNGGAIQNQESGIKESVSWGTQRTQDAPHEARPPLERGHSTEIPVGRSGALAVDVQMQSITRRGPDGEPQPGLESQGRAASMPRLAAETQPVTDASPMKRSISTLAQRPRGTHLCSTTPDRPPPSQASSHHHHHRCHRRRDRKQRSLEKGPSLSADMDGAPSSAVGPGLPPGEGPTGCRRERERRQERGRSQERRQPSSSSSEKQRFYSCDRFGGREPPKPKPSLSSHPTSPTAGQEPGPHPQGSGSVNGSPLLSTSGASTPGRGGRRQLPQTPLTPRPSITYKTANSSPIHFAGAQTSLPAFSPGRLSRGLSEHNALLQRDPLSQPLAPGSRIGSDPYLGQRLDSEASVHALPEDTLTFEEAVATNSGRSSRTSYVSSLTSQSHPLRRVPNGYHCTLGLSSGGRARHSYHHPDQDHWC
T4 sequence (Q02410 whole entry): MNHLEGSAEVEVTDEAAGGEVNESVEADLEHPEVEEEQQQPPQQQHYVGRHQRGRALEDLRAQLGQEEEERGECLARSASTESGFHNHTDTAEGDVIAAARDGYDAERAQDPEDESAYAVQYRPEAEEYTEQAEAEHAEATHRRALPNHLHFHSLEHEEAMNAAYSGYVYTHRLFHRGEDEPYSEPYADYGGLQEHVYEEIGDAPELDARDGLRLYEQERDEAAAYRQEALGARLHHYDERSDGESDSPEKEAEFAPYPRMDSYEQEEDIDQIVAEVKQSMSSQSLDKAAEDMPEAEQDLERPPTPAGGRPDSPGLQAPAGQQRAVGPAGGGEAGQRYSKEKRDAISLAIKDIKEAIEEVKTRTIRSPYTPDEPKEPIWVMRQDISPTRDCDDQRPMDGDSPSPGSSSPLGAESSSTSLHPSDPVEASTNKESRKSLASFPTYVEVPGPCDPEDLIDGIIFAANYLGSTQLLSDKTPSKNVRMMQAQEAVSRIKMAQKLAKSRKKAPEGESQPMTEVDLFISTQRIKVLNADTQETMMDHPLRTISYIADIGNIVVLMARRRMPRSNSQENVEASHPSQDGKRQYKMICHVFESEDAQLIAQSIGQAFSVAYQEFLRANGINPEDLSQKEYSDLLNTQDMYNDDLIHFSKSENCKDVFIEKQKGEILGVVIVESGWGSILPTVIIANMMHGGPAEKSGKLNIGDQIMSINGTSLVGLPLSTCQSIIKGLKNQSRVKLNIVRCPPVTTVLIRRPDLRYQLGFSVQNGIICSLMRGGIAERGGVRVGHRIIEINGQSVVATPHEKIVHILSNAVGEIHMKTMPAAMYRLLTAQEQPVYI

[10] = target: T4, Voltage-gated N-type calcium channel alpha-1B subunit/Amyloid beta A4 precursor protein-binding family A member 1; assay: disruptors of Mint-PDZ/N-type channel peptide interaction – biochemical, HTRF, SAR follow-up (AID 2489); format: functional
Salmon testes DNA = assay: acridine orange-DNA binding displacement – biochemical, fluorescence polarization, cherry-picked samples, set 2, artefact control for KSHV LANA DNA-binding inhibitor project, dose response (AID 504727); design: species or system Salmonidae
[11] = target: T5, Alkaline phosphatase, tissue-nonspecific isozyme (Homo sapiens, UniProt P05186)
T5 sequence (P05186 whole entry): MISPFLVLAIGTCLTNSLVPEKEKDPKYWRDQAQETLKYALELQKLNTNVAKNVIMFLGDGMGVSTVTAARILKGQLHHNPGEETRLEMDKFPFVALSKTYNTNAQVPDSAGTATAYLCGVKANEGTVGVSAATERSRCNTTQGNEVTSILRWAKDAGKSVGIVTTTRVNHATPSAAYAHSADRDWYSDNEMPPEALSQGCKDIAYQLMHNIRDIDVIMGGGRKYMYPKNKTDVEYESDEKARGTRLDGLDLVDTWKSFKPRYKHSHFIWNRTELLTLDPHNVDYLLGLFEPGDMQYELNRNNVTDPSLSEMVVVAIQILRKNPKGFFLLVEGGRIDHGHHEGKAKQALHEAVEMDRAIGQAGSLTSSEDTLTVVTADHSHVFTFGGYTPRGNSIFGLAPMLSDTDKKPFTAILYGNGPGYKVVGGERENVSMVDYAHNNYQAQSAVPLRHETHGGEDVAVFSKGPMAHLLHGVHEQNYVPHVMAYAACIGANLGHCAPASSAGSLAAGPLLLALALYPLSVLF

[12] = target: Neuropeptide Y receptor type 1 (Homo sapiens, UniProt P25929); assay: Fluorescence-based dose response cell-based high-throughput screening assay for agonists of NPY-Y1. [Related pubchem assays: 1697 (Screening assay (NPY-Y1 agonists).), 1359 (Screening assay (NPY-Y2 potentiators or agonists).), 1304 (Screening assay (NPY-Y1 potentiators or agonists).), 1704 (Screening assay (CNGC inhibitors).), 1791 (Summary AID.)]; format: functional
Sequence of Neuropeptide Y receptor type 1 (P25929 whole entry): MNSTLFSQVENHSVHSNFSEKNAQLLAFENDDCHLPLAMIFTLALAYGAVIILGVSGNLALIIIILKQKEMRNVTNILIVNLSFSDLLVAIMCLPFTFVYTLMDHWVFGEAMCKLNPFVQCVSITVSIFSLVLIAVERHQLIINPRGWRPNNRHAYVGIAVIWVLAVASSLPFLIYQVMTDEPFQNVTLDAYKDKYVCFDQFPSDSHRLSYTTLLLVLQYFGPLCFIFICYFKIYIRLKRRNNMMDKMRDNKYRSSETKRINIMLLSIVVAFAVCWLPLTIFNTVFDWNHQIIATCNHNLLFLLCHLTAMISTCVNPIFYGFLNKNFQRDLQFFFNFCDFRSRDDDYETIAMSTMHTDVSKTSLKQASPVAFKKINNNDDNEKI

HEK293 = assay: Fluorescence-based counterscreen for potentiators or agonists of NPY-Y1: cell-based high-throughput dose response assay for inhibitors of cyclic nucleotide gated ion channel (CNGC) activity. In this assay, the parental HEK293 cell line transfected with a cyclic-nucleotide gated ion channel (CNGC)-based cAMP sensor is used to measure inhibition of isoproterenol-induced CNGC …; format: functional; settings: Homo sapiens
[13] = target: Neurotensin receptor type 1 (Homo sapiens, UniProt P30989); format: functional;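 note: Image-based confirmatory dose-response assay measuring agonist activity at NTR1; NTR1-expressing U2OS osteosarcoma cells imaged for beta-arrestin GFP spot formation; agonist potency where compounds increase beta-arrestin recruitment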
[14] = target: Neuropeptide Y receptor type 2 (Homo sapiens, UniProt P49146); assay: Fluorescence-based counterscreen for agonists of NPY-Y1: cell-based high-throughput dose response assay for agonists of NPY-Y2.; format: functional
[15] = target: T4, Voltage-gated N-type calcium channel alpha-1B subunit/Amyloid beta A4 precursor protein-binding family A member 1; format: protein assay
[16] = target: T4, Voltage-gated N-type calcium channel alpha-1B subunit/Amyloid beta A4 precursor protein-binding family A member 1; format: protein assay; remark: listed apart in the source
[17] = target: Glucose-6-phosphate 1-dehydrogenase (Homo sapiens, UniProt P11413); assay: inhibition of Homo sapiens G6PD, dose series – biochemical, fluorescence, selectivity assay for P. falciparum G6PD inhibitor project, dose response (AID 504792); format: functional
[18] = target: DNA dC->dU-editing enzyme APOBEC-3G (Homo sapiens, UniProt Q9HC16); assay: Dose Response confirmation of small molecule APOBEC3G DNA Deaminase Inhibitors via a fluorescence-based single-stranded DNA deaminase assay. [Related pubchem assays (depositor defined):AID493012, AID493028]; format: functional
Sequence of DNA dC->dU-editing enzyme APOBEC-3G (Q9HC16 whole entry): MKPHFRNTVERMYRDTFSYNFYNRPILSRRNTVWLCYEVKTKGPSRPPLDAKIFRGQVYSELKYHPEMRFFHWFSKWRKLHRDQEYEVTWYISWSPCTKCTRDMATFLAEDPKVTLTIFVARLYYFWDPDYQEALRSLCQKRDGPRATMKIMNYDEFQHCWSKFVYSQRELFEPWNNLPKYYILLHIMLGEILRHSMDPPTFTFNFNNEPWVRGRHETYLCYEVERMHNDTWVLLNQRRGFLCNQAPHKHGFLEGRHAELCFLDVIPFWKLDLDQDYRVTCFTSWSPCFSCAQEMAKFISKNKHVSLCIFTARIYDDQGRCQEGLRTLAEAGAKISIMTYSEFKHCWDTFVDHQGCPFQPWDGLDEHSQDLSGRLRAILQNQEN

[19] = target: Acyl-homoserine lactone acylase PvdQ (Pseudomonas aeruginosa (strain LESB58), UniProt Q9I194); assay: PvdQ acylase enzyme activity blockers – biochemical, fluorescence, plate reader and imaging, cherry-picks, dose response (AID 493231)
Cytochrome P450 2D6 = Cytochrome P450 2D6 (Homo sapiens, UniProt P10635); assay: qHTS Assay for Inhibitors and Substrates of Cytochrome P450 2D6. [Related pubchem assays: 410 ]; format: ADME; settings: read-out: Potency
[20] = target: Intestinal-type alkaline phosphatase (Mus musculus, UniProt P24822); assay: PubChem AID 488874; format: functional
[21] = target: T6, Intestinal-type alkaline phosphatase (Homo sapiens, UniProt P09923); assay: activation of human intestinal alkaline phosphatase – biochemical, luminescent, uHTS hits, set 2, dose response (AID 488817); format: functional;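 note: potency of activators that raise enzyme activity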
T6 sequence (P09923 whole entry): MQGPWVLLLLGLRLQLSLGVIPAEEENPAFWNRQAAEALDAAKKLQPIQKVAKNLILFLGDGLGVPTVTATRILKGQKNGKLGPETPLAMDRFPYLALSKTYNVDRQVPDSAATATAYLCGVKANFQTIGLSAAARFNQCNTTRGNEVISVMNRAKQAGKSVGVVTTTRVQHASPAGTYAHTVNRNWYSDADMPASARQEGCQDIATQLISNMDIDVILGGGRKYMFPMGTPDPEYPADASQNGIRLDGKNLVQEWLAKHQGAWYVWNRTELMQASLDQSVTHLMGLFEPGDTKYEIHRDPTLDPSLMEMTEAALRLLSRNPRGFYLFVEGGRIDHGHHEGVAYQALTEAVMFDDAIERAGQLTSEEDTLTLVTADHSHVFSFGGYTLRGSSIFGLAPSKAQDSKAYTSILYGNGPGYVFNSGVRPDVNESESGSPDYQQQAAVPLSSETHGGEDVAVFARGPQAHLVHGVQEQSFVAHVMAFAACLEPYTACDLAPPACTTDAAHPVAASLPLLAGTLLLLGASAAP

[22] = target: T5, Alkaline phosphatase, tissue-nonspecific isozyme; assay: activation of tissue-nonspecific alkaline phosphatase – biochemical, TNAP isozyme, human IAP uHTS hits, selectivity assay for human IAP activator project, dose response (AID 488886); format: functional;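 note: potency of compounds raising TNAP activity as a selectivity check on IAP activators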
[23] = target: T6, Intestinal-type alkaline phosphatase; assay: human intestinal alkaline phosphatase activators, dose response, biochemical, luminescence, uHTS hits (AID 463120); format: functional

Question: For `CCN1C(NCC(C)C)=N[C@@H](c2cccc(C(F)(F)F)c2)C(C(=O)OC)=C1C`, which IC50 [1] is on record?
Answer: Its IC50 is 10 µM (active).

Question: And the IC50 [2]?
Answer: Its IC50 is > 100 µM (inactive).

Question: What does the source list for `Nc1nc(-c2cc(O)ccc2[N+](=O)[O-])cc(-c2ccccc2)c1[N+](=O)[O-]`?
Answer: IC50 (Prothrombin): 53 µM (active); IC50 [3]: > 100 µM (inactive); AC50 (cells): 42.5 µM (active); IC50 [4]: 9.51 µM (active); IC50 [5]: > 66.6 µM (inactive); AC50 [6]: > 52 µM (inactive); AC50 [7]: 1.11 µM (active); AC50 (Caspase-6): 10.7 µM (active); IC50 [8]: 23.9 µM (active)

Question: Which results are given for `CN(C)S(=O)(=O)N(CC(=O)N(Cc1ccccc1)Cc1ccccc1)c1ccccc1`?
Answer: IC50 (Bcl-2-like protein 10): 36.6 µM (active); IC50 (Estrogen receptor): 24.9 µM (active)

Question: Which IC50 (SUMO E1/E2) does the source give for `COc1ccccc1CNC(=O)c1cc(-c2ccco2)nc2ccccc12` here?
Answer: Its IC50 is 2.51 µM (active).

Question: And the IC50 [9]?
Answer: Its IC50 is 22 µM (active).

Question: And the IC50 [10]?
Answer: The IC50 was 24.7 µM (active).

Question: For `CSc1nc(SC(C)C(=O)O)c2c3c(sc2n1)COC(C)(C)C3` (configuration not stated), which AC50 (Salmon testes DNA) is on record?
Answer: Its AC50 is 90.3 µM (active).

Question: With `Oc1ccccc1/C=N/Nc1cccc2cccnc12` as the molecule, how does the EC50 [11] read?
Answer: Its EC50 is > 100 µM (not active).

Question: Which EC50 [12] does the source give for `CC1CCC(C(C)C)C(OCC(O)CNC(C)c2ccccc2)C1` (configuration not stated) here?
Answer: The EC50 was > 35.4 µM (not active).

Question: What about the IC50 (HEK293) of the same molecule?
Answer: Its IC50 is > 35.4 µM (not active).

Question: What about the EC50 [13] of the same molecule?
Answer: The EC50 was 21.5 µM (inactive).

Question: What about the EC50 [14] of the same molecule?
Answer: Its EC50 is > 35.4 µM (not active).

Question: With `Cc1cc(C)c2c(=O)n(CC(=O)NC3CCCC3)sc2n1` as the molecule, how does the IC50 [15] read?
Answer: The IC50 was 42.7 µM (active).

Question: And the IC50 [16]?
Answer: Its IC50 is 7.6 µM (active).

Question: What about the IC50 [17] of the same molecule?
Answer: Its IC50 is > 80 µM (inactive).

Question: What about the IC50 [18] of the same molecule?
Answer: The IC50 was > 100 µM (inactive).

Question: With `O=C1NN(c2ccccc2)C(=O)C2C1C1C=CC2C12CC2` (configuration not stated) as the molecule, how does the AC50 [19] read?
Answer: The AC50 was 18.8 µM (active).

Question: Which AC50 (Cytochrome P450 2D6) does the source give for `COC(=O)NC(c1ccc(F)cc1)C(C(C)=O)C(=O)OC` (configuration not stated) here?
Answer: The AC50 was 3.16 µM (inconclusive).

Question: Which results are given for `Cc1nc2c3ccccc3nc(NNC(=O)CCC(=O)NCCN3CCN(c4ccccc4)CC3)n2n1`?
Answer: IC50 [20]: 49.8 µM (active); EC50 [21]: 13.7 µM (active); EC50 [22]: 14.1 µM (active); EC50 [23]: 8.73 µM (active)
